Reference: patent publication US9434711B2 (Janssen Pharmaceutica, NV, priority 2007, dated 2016)

Biological target: canine TRPM8 (Canis lupus familiaris, UniProt Q1A7N1)
Experiment: In Vitro Canine TRPM8 Functional Assay (Ca2+ fluorescence, icilin activation)
Format: cell-based
Conditions: for inhibition at 0.2 µM / % Inh @ 0.2 (μM): compound at 0.2 μM, canine TRPM8, icilin activation; for inhibition at 0.2 µM: read-out: % Inh @ 0.2; for IC50: HEK293 cells stably expressing canine TRPM8, icilin activation, eight-point dose-response, read-out: IC50
Procedure, shortened: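 HEK293 cells stably expressing canine TRPM8 loaded with Calcium 3 dye; compound added and Ca2+ fluorescence monitored 5 min before icilin at a final level giving ~80% maximal response, read on FLIPR or FDSS. EC50 or IC50 from eight-point dose-response, quadruplicate wells per point.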

Sequence of canine TRPM8 (Q1A7N1 1-1104): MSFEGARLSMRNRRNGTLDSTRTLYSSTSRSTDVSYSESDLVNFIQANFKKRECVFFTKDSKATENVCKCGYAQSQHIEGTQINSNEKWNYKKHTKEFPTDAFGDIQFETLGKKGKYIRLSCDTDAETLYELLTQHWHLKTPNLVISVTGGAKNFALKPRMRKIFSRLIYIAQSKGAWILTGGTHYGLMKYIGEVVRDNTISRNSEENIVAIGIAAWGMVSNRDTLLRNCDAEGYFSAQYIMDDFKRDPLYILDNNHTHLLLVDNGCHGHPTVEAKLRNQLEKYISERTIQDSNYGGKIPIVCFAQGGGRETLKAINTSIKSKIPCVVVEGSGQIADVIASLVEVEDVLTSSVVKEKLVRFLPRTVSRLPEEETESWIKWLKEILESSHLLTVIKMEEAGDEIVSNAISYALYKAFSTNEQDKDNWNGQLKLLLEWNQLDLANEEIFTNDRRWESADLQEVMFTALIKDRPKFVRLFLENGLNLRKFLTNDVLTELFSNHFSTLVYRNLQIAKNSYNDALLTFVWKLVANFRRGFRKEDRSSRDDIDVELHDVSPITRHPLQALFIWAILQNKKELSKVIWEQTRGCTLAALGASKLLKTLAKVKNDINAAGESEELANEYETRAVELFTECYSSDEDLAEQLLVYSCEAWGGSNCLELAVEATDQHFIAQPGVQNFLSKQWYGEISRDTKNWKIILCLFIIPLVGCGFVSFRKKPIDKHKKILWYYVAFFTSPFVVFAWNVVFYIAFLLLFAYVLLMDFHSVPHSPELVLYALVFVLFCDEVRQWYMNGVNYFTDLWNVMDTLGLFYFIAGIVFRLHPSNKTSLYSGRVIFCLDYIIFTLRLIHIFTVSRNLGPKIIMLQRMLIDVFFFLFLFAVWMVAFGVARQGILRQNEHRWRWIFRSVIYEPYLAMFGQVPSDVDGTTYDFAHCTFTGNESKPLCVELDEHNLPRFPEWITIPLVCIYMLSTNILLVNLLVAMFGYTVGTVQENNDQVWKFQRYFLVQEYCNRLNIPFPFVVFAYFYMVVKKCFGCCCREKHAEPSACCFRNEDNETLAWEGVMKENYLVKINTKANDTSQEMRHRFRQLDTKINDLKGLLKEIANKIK

SMILES	inhibition at 0.2 µM [%]	IC50 [nM]	% Inh @ 0.2 (μM) [%]
N#Cc1cccc(S(=O)(=O)N(CCCC(F)(F)F)c2cc3ccccc3s2)c1 [Compound 574, N-(Benzo[b]thiophen-2-yl)-N-(4,4,4-trifluoro-butyl)-3-cyano-benzenesulfonamide]	16	–	–
N#Cc1cccc(S(=O)(=O)N(CCC2CC2)c2cc3ccccc3s2)c1 [Compound 575, N-(Benzo[b]thiophen-2-yl)-N-(2-cyclopropyl-ethyl)-3-cyano-benzenesulfonamide]	15	–	–
O=S(=O)(c1cccc(-c2nnn[nH]2)c1)N(Cc1ccc(F)c(C(F)(F)F)c1)c1sc2ccccc2c1Br [Compound 576, N-(3-Bromo-benzo[b]thiophen-2-yl)-N-(4-fluoro-3-trifluoromethyl-benzyl)-3-(1H-tetrazol-5-yl)-benzenesulfonamide]	100	19.1	–
O=S1(=O)C(N(CCC2CC2)S(=O)(=O)c2ccccc2)=C(Br)c2ccccc21 [Compound 577, N-(3-Bromo-1,1-dioxo-1H-benzo[b]thiophen-2-yl)-N-(2-cyclopropylethyl)-benzenesulfonamide]	101	7.8	–
O=S(=O)(c1cccc(-c2nnn[nH]2)c1)N(Cc1ccc(F)c(C(F)(F)F)c1)c1sc2ccccc2c1Cl [Compound 578, N-(3-Chloro-benzo[b]thiophen-2-yl)-N-(4-fluoro-3-trifluoromethyl-benzyl)-3-(1H-tetrazol-5-yl)-benzenesulfonamide]	91	26.7	–
O=S(=O)(c1ccc(-c2nnn[nH]2)cc1)N(CCCCC(F)(F)F)c1sc2ccccc2c1Br [Compound 579, N-(3-Bromo-benzo[b]thiophen-2-yl)-N-(5,5,5-trifluoro-pentyl)-4-(1H-tetrazol-5-yl)-benzenesulfonamide]	102	–	–
O=S(=O)(c1ccc(-c2nnn[nH]2)cc1)N(CCCCC(F)(F)F)c1sc2ccccc2c1Cl [Compound 580, N-(3-Chloro-benzo[b]thiophen-2-yl)-N-(5,5,5-trifluoro-pentyl)-4-(1H-tetrazol-5-yl)-benzenesulfonamide]	101	22.1	–
O=S1NC(c2ccc(S(=O)(=O)N(CCCCC(F)(F)F)c3sc4ccccc4c3Br)cc2)=NO1 (stereo not shown) [Compound 581, N-(3-Bromo-benzo[b]thiophen-2-yl)-N-(5,5,5-trifluoro-pentyl)-4-(3H-[1,2,3,5]oxathiadiazole-2-oxide)-benzenesulfonamide]	–	25.1	100
O=S1NC(c2ccc(S(=O)(=O)N(CCCCC(F)(F)F)c3sc4ccccc4c3Cl)cc2)=NO1 (stereo not shown) [Compound 582, N-(3-Chloro-benzo[b]thiophen-2-yl)-N-(5,5,5-trifluoro-pentyl)-4-(3H-[1,2,3,5]oxathiadiazole-2-oxide)-benzenesulfonamide]	–	50.3	96
O=c1[nH]c(-c2ccc(S(=O)(=O)N(CCCCC(F)(F)F)c3sc4ccccc4c3Br)cc2)no1 [Compound 583, N-(3-Bromo-benzo[b]thiophen-2-yl)-N-(5,5,5-trifluoro-pentyl)-4-(5-oxo-4,5-dihydro-[1,2,4]oxadiazol-3-yl)-benzenesulfonamide]	100	–	–
O=c1[nH]c(-c2ccc(S(=O)(=O)N(CCCCC(F)(F)F)c3sc4ccccc4c3Cl)cc2)no1 [Compound 584, N-(3-Chloro-benzo[b]thiophen-2-yl)-N-(5,5,5-trifluoro-pentyl)-4-(5-oxo-4,5-dihydro-[1,2,4]oxadiazol-3-yl)-benzenesulfonamide]	100	15.9	–
Nc1ccc(S(=O)(=O)N(CCC(F)(F)F)c2sc3ccccc3c2Cl)cc1 [Compound 585, 4-Amino-N-(3-chloro-benzo[b]thiophen-2-yl)-N-(3,3,3-trifluoro-propyl)-benzenesulfonamide]	101	6.4	–
Nc1ccc(S(=O)(=O)N(CCC(F)(F)F)c2cc3ccccc3s2)cc1Cl [Compound 586, 4-Amino-N-(benzo[b]thiophen-2-yl)-3-chloro-N-(3,3,3-trifluoro-propyl)-benzenesulfonamide]	100	34.6	–
